Measured values as given in patent publication US10463664B2, “Inhibitors of HSV nucleotidyl transferases and uses therefor” (Saint Louis University, priority 2013, dated 2019).

Columns and labels:
in vitro = details: human
In short: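 Primary HFF, 1.0×10^4/well, exposed 24 h to 0.78–100 μM compound in 1% DMSO. Viability read by MTT (0.25 mg/mL, 60 min, 570 nm) and by protease-release lysis luminescence. CC50 by non-linear fit of percent viability.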

[1] = CytoTox-Glo cellular lysis assay in Vero cells; type: cell-based; details: African green monkey, Vero cells, read-out: Vero cell toxicity CTG CC50
Method: Quantitative toxicity measurements were conducted for all compounds that suppressed HSV replication by approximately 2 login or more at 5 μM plus a number of compounds with lesser inhibitory activity for comparison. Toxicity was assessed by measuring release of intracellular proteases into the culture medium due to cellular lysis. […] Consistent with the subjective assessments of toxicity, all compounds selected for quantitative toxicity assessment had CC50 values ≥50 μM by both the MTT and cellular lysis assays (Table 1).

[2] = MTT mitochondrial toxicity assay in Vero cells; type: cell-based; details: African green monkey, Vero cells, read-out: Vero cell toxicity MTT CC50
[3] = Neutral red cytotoxicity assay in uninfected HFFs (14 day, with CPE assay); type: cell-based, human; details: human, uninfected human foreskin fibroblasts (HFFs)
Method: Anti-HCMV CPE inhibition and cytotoxicity assays. HFFs were infected with HCMV strain AD169 in the presence of serial dilutions of the compounds from 0.0192 to 60 μM. Fourteen days later the monolayers were stained with crystal violet, and retained cell density was quantified using a multiplate autoreader (BioTek). Cytotoxicity was measured the same way, except that the cells were uninfected and neutral red internalization by viable cells was measured.
Antiviral efficacy against HCMV. The ability of select HSV inhibitors to inhibit replication of another major human herpesvirus pathogen, human cytomegalovirus (HCMV) (65) was tested. This was based on the inhibitors strong suppression of HSV-1 and HSV-2 and the prediction that other members of the herpesvirus family would be sensitive to NTS inhibitors due to their shared DNA replication mechanism. Compounds #41, 46, 49, 55, 56, and 59 and the FDA-approved anti-HCMV drug ganciclovir were evaluated with crystal violet CPE and neutral red toxicity assays in HFFs. HFFs were infected with HCMV in the presence of serial dilutions of the compounds that were most inhibitory for HSVs. After 14 days the monolayers were stained and cell density was determined by OD reading. Compound cytotoxicity for uninfected cells was determined in the same manner except that neutral red uptake by viable cells was measured. […] The TI values for the four NTS inhibitors of HCMV ranged from 4 for compound #41 to 38 for #56. Therefore, NTS inhibitors can suppress HCMV replication in addition to inhibiting the HSVs.

[4] = Neutral red cytotoxicity assay in HFFs (10 day, with plaque reduction assay); type: cell-based, human; details: human, uninfected primary human foreskin fibroblasts (HFFs), 10 day assay
Method: HCMV plaque reduction EC50 and toxicity assays. Low passage primary HFFs were infected with HCMV strain AD169 in the presence of serial dilutions of the compounds from 0.032 to 100 μM. Ten days later the monolayers were stained with 1% neutral red solution in PBS. After rinsing, plaques were counted using a stereomicroscope and the EC50 was interpolated from the data. Cytotoxicity was measured using a plate-based assay in which compounds were added to HFFs at 0.032 to 100 μM. At the end of the incubation period, plates were stained for 1 h with a neutral red solution in PBS. The stain was then removed, the plates rinsed in PBS and dried, and dye internalized by viable cells was determined at OD550. CC50 values were interpolated from the data.
Compounds #41, 46, 49, 55, 56, and 59 and the FDA-approved, anti-HCMV drug ganciclovir were subsequently evaluated with plaque reduction and toxicity assays in HFFs. HFFs were infected with HCMV in the presence of serial dilutions of the compounds. After 10 days the cultures were stained with neutral red and plaques were counted. Compound cytotoxicity for uninfected cells was determined in the same manner except that neutral red uptake by viable cells was measured by optical density. […] The TI values for the five NTS inhibitors of HCMV ranged from 5 for compound #46 to 17 for #55 and 59. Therefore, NTS inhibitors can suppress HCMV replication in addition to inhibiting the HSVs.

HSV-1 strain KOS = test: Resistance evolution by passage of HSV-1 KOS in presence of inhibitor; type: cell-based, herpes simplex virus 1; details: compared with unselected KOS
Method: Cultures were scraped and collected when virus-induced cytopathic effect was evident (24-72 h). […] This process was repeated three times, maintaining the independent lineages. […] Inhibition was determined by subtracting a lineage's titer in the presence of inhibitor from its titer in the presence of diluent control.

HSV-1 = test: Pre-incubation of viral inoculum with compound (virus infectivity); type: cell-based, herpes simplex virus 1
Method: Tests were carried out to determine if the early event inhibited by compound #46 was a pre- or post-entry event. A high titer HSV-1 stock was pre-incubated with compound #46 at 50 μM or was incubated with an equivalent amount of DMSO-containing medium for 1 hour at 37° C. Then the viral stocks with compound or DMSO were diluted such that Vero cells were infected at a moi of 0.1 as usual. […] A standard inhibition assay using compound #46 at 50 μM was conducted in parallel as a positive control, and viral titers were determined by plaque assay at 24 hours post-infection. The standard conditions of infection at 50 μM caused a 5.5 log10 suppression of HSV-1 replication relative to the DMSO pre-treatment sample.

human RNaseH1 = target: T1, human RNaseH1 (Homo sapiens, UniProt O60930); details: Hu et al., 2013; cited from earlier work
T1 construct: hexahistidine; made in house; host or cells: E. coli
T1 sequence (O60930 1-286): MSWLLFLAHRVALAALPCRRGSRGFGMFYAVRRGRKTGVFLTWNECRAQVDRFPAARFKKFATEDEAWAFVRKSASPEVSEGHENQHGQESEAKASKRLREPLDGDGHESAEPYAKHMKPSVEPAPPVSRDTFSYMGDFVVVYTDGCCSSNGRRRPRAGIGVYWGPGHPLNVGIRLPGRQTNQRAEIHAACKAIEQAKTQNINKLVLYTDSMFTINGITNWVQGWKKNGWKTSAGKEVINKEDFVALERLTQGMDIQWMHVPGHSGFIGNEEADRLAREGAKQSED

Compound | CC50 at 24 h (in vitro) [µM] | CC50 at 24 h [1] [µM] | CC50 at 24 h [2] [µM] | CC50 at 14 days [3] [µM] | CC50 at 10 days [4] [µM] | Sensitivity of inhibitor-selected lineages after 3 rounds of growth (in words) (HSV-1 strain KOS) | Suppression of HSV-1 replication, standard conditions of infection (HSV-1; 50 μM throughout, relative to DMSO pre-treatment sample) [log10] | Effect of pre-incubation on virions / virus entry (in words) (HSV-1; pre-incubation 50 μM, 1 hour, 37° C.) | Effect on RNase H1 (in words) (human RNaseH1)
Nc1nc2c(ncn2COCCO)c(=O)[nH]1 [ACV, Acyclovir, reference compound] | > 100 | > 100 | > 100 | – | – | – | – | – | –
Cc1cc(C2CCCCC2)n(O)c(=O)c1 [Compound 41, Ciclopirox, reference compound] | > 100 | > 100 | > 50 | 8.9 | 2.9 | remained as sensitive | – | – | –
CC(C)c1ccc(O)c(=O)c(O)c1 [Compound 46, Beta-thujaplicinol] | – | – | – | – | – | remained as sensitive | 5.5 | not directly toxic to virions | no effect
